Where two headings read alike, the source gives them in different places.
Columns and labels:
[1] = target: isolated recombinant JAK1 kinase domain (Homo sapiens (Human), UniProt P23458); experiment: JAK1 enzyme assay (Caliper LabChip, Ki); type: biochemical; conditions: read-out: JAK1 Ki
Outline: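 Recombinant human JAK1 kinase domain phosphorylating an N-terminally 5-carboxyfluorescein-labelled JAK3-derived peptide, 30 min at 22 °C, stopped with EDTA (50 mM final). Phosphorylated fraction of total peptide read by Caliper LabChip mobility shift; Ki from Morrison tight-binding fit corrected for ATP competition (Ki=Ki,app/(1+[ATP]/Km,app)).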

[2] = target: isolated recombinant JAK2 kinase domain (Homo sapiens (Human), UniProt O60674); experiment: JAK2 enzyme assay (Caliper LabChip, Ki); type: biochemical
Outline: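 Recombinant human JAK1 or JAK2 kinase domain phosphorylating a 5-carboxyfluorescein-labelled JAK3-derived peptide; 30 min at 22 °C, stopped with EDTA (50 mM final). Phosphorylated product measured as a fraction of total peptide by Caliper LabChip mobility shift.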

[3] = tested on: JAK1-dependent STAT6 phosphorylation downstream of IL-13 stimulation in BEAS-2B human bronchial epithelial cells; experiment: JAK1 pathway assay in BEAS-2B cells (IL-13-pSTAT6, MSD); type: cell-based; conditions: BEAS-2B cells, IL-13 stimulation, read-out: IL-13 p-STAT6 BEAS-2B IC50

Chain of isolated recombinant JAK2 kinase domain (O60674 849-1124): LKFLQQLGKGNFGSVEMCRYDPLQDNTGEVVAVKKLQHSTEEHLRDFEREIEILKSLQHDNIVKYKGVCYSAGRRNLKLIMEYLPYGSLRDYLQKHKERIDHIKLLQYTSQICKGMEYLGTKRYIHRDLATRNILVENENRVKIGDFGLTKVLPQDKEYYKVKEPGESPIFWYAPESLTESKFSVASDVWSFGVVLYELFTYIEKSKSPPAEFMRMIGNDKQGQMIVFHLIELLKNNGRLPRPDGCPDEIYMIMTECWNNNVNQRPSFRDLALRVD
Chain of isolated recombinant JAK1 kinase domain (P23458 875-1153): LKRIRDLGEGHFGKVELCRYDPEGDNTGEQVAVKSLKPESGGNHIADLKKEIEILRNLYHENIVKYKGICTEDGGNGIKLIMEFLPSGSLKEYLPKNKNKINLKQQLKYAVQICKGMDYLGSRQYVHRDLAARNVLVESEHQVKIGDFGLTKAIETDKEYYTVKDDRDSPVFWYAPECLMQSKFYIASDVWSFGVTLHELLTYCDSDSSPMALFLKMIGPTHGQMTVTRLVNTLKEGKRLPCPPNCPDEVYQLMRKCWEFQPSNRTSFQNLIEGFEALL

SMILES | Ki [1] | Ki [2] | IC50 ([3]; Homo sapiens, BEAS-2B) | IC50 [3]
COCc1cccc(-c2ccc(CN3CCC(CC#N)(n4cc(C(N)=O)c(NC(=O)C5CC5)n4)CC3)cc2)c1 [Example 157, 1-[4-(cyanomethyl)-1-[[4-[3-(methoxymethyl)phenyl]phenyl]methyl]-4-piperidyl]-3-(cyclopropanecarbonylamino) pyrazole-4-carboxamide] | 1.6 nM | 13.7 nM | 104 nM | –
COC(=O)Nc1nn(C2(CC#N)CCN(Cc3cc(O)c(-c4ccc(C)o4)cc3F)CC2F)cc1C(N)=O (stereo not drawn) [Example 256, methyl N-[4-carbamoyl-1-[4-(cyanomethyl)-3-fluoro-1-[[2-fluoro-5-hydroxy-4-(5-methyl-2-furyl)phenyl]methyl]-4-piperidyl]pyrazol-3-yl]carbamate] | 0.15 nM | 0.89 nM | 47 nM | –
N#CCC1(n2cc(C(N)=O)c(NC(=O)C3CC3)n2)CCN(Cc2ccc(-c3ccccc3)c(F)c2)CC1 [Example 140, 1-[4-(cyanomethyl)-1-[(3-fluoro-4-phenyl-phenyl)methyl]-4-piperidyl]-3-(cyclopropanecarbonylamino) pyrazole-4-carboxamide] | 0.6 nM | 4.4 nM | 49 nM | –
N#CCC1(n2cc(C(N)=O)c(NC(=O)C3CC3)n2)CCN(Cc2ccc3c(c2)[nH]c2ccccc23)CC1 [Example 95] | 1.2 nM | 6.3 nM | 275 nM | –
N#CCC1(n2cc(C(N)=O)c(NC(=O)C3CC3)n2)CCC(Nc2ccc(-c3ccco3)cc2)CC1 (stereo not drawn) [Example 276, 1-[1-(cyanomethyl)-4-[4-(2-furyl)anilino]cyclohexyl]-3-(cyclopropanecarbonylamino) pyrazole-4-carboxamide] | 0.25 nM | 2.2 nM | 9 nM | –
Cc1cnn(-c2ccc(CN3CCC(CC#N)(n4cc(C(N)=O)c(NC(=O)C5CC5)n4)CC3)cc2)n1 [Example 253, 1-[4-(cyanomethyl)-1-[[4-(4-methyltriazol-2-yl)phenyl]methyl]-4-piperidyl]-3-(cyclopropanecarbonylamino) pyrazole-4-carboxamide] | 1 nM | 5.6 nM | 56 nM | –
CCOC1(C(F)(F)F)CN([C@H]2CC[C@](CC#N)(n3cc(C(N)=O)c(NC(=O)C4CC4)n3)CC2)C1 (single isomer, unassigned) [Example 10] | > 562 nM | > 319 nM | > 1000 nM | –
CS(=O)(=O)Nc1cc(CN2CCC(CC#N)(n3cc(C(N)=O)c(NC(=O)C4CC4)n3)CC2)ccc1F [Example 79] | 3 nM | 14.2 nM | > 1000 nM | –
Cc1ccc(-c2ccc(CN3CCC(CC#N)(n4cc(C(N)=O)c(NC(=O)C5CC5)n4)C(F)C3)cc2)o1 (stereo not drawn) [Example 223, 1-[4-(cyanomethyl)-3-fluoro-1-[[4-(5-methyl-2-furyl)phenyl]methyl]-4-piperidyl]-3-(cyclopropanecarbonylamino) pyrazole-4-carboxamide] | 0.38 nM | 0.34 nM | 12 nM | –
N#CCC1(n2cc(C(N)=O)c(NC(=O)C3CC3)n2)CCN(Cc2ccc(-c3cccc(Cl)c3)cc2)CC1 [Example 146, 1-[1-[[4-(3-chlorophenyl)phenyl]methyl]-4-(cyanomethyl)-4-piperidyl]-3-(cyclopropanecarbonylamino) pyrazole-4-carboxamide] | 1.1 nM | 8.2 nM | 95 nM | –
N#CCC1(n2cc(C(N)=O)c(NC(=O)C3CC3)n2)CCC(Nc2ccccc2Cl)CC1 (stereo not drawn) [Example 290, 1-[4-(2-chloroanilino)-1-(cyanomethyl)cyclohexyl]-3-(cyclopropanecarbonylamino) pyrazole-4-carboxamide] | 1.1 nM | 13 nM | 82 nM | –
COC(=O)Nc1nn(C2(CC#N)CCN(CC3CCC(c4ccccc4)CC3)CC2F)cc1C(N)=O (stereo not drawn) [Example 236, methyl N-[4-carbamoyl-1-[4-(cyanomethyl)-3-fluoro-1-[(4-phenylcyclohexyl)methyl]-4-piperidyl]pyrazol-3-yl]carbamate] | 0.21 nM | 1.4 nM | – | 19 nM

From US11731943B2, “Therapeutic compounds, compositions and methods of use thereof” (priority 2016, dated 2023)
